Reference: patent US9452154B2, “Methods for treating HCV” (Gilead Sciences, Inc., priority 2010, dated 2016)
Like-named read-outs stand apart in the source and are kept apart here.

How the values were obtained:
[1] = test system: HCV genotype 1a replicon; test: Biological Example 3: antiviral combination studies with Compound 4 (MacSynergy II); conditions: in combination with Compound 4
[2] = test system: HCV 1b replicon system; test: Biological Example 5: antiviral combination studies with Compound 6 (MacSynergy II); assay type: cell-based; conditions: in combination with Compound 6
[3] = test system: HCV genotype 1a replicon; test: Biological Example 3: HCV genotype 1a replicon assay, EC50; assay type: cell-based; conditions: Hepatitis C virus, 72 h, 3 days, read-out: EC50
Procedure: The HCV genotype 1a replicon cell line used in this study was described previously. The cells were grown in cell culture medium containing Dulbecco's Modified Eagle Medium (DMEM) with GlutaMAX (Gibco, Carlsbad, Calif., Cat#10569-044), supplemented with 10% FBS (HyClone, Logan, Utah, Cat#SH30071.03), 100 Units/mL Penicillin, 100 μg/mL Streptomycin (Gibco, Carlsbad, Calif., Cat#15140-122), and 0.1 mM non-essential amino acids (Gibco, Carlsbad, Calif., Cat#11140-050). Replicon cells were maintained in 0.5 mg/mL Geneticin (Invitrogen, Carlsbad, Calif., Cat#10131-035) to prevent the loss of HCV replicon. The cells were passaged every 3-4 days before reaching confluency.
(§1) [formula] where XC is the fluorescence signal from the compound-treated well; MB is the average fluorescence signal from puromycin-treated wells; MD is the average fluorescence signal from DMSO-treated wells. The anti-HCV replication activity was determined by the luminescence signal generated from the reporter renilla luciferase of the HCV replicon. The percent inhibition on HCV replicon was calculated using equation 1, where XC is the luminescence signal from compound-treated well; MB is average luminescence signal from the ITMN-191-treated wells; MD is the average luminescence signal from DMSO-treated wells.
(§2) Both CC50 and EC50 values were obtained using Pipeline Pilot 5.0 software package (Accelrys, San Diego, Calif.) by nonlinear regression fitting of experimental data to equation 2: […]

[4] = Biological Example 3: cytotoxicity (calcein AM), CC50; assay type: cell-based; conditions: human, Huh-7 cells carrying a HCV genotype 1a replicon; HCV genotype 1a replicon cells; calcein AM
Procedure: The HCV replicon assay was a multiplex assay which can assess both cytotoxicity and anti-replicon activity from the same well. The CC50 assay was performed first.
The cytotoxicity effect was determined by calcein AM conversion to fluorescent product. The percent cytotoxicity was calculated by equation 1:
as §1, §2

[5] = test system: GT-1b Huh-lunet cells; test: Biological Example 4: antiviral combination studies with Compound 5 (MacSynergy II); assay type: cell-based, HCV; conditions: in combination with Compound 5, 1b replicon cells
[6] = test system: Huh-7 cells carrying a HCV genotype 1a replicon; test: Biological Example 3: cytotoxicity in combination studies (MacSynergy II); conditions: in combination with Compound 4
[7] = test system: NS3 GT1b mutant replicons; assay type: cell-based, HCV
Procedure: (§3) GT1b and GT1a replicons carrying Renilla Luciferase reporter were used to generate the mutant replicons. The mutations were introduced into the replicon construct by site-directed mutagenesis and confirmed by sequencing. Mutant replicon RNAs were generated from DNA by in vitro transcription and transfected into Huh-7 Lunet or C1 cells
(§4) Compounds were serially diluted 1:3 in 100% DMSO (Sigma). These serial dilutions were added to the cells at a 1:200 dilution to achieve a final concentration of 0.5% DMSO in a total volume of 200 μL. […] EC50 values were calculated using Prism.
(§5) For comparison, a fold change of 0-3 is considered “sensitive”, a fold change of 3-10 is considered “low”, a fold change of 10-50 is considered “medium” and a fold change of greater than […] is considered “high”.

[8] = test system: NS3 GT1a mutant replicons; assay type: cell-based, HCV
Procedure: as §3, §4, §5

[9] = test system: GT1b and GT1a mutant replicons; test: Biological Example 8: summary of cross resistance of mutant replicons; assay type: cell-based, HCV; conditions: triple class mutants that confer resistance to PI, NS5A and Compound 1
Procedure: as §3, §4, §5

SMILES: COc1ccc2c(O[C@@H]3C[C@H]4C(=O)N[C@]5(P(=O)(O)Cc6c(F)cccc6F)C[C@H]5CCCCCCC[C@H](NC(=O)OC5CCCC5)C(=O)N4C3)cc(-c3csc(NC(C)C)n3)nc2c1Cl [Compound 2, (2R,6S,13aR,14aS,16aS)-2-(8-chloro-2-(2-(isopropylamino)thiazol-4-yl)-7-methoxyquinolin-4-yloxy)-6-(cyclopentyloxycarbonylamino)-5,16-dioxooctadecahydrocyclopropa[e]pyrrolo[1,2-a][1,4]diazacyclopentadecin-14a-yl(2,6-difluorobenzyl)phosphinic acid]
- Antagonism Volume [1]: −2 ± 3 nM^2%
- Interaction [1]: Additivity (Additivity: ≦25 and >−25 nM^2%)
- Synergy Volume [1]: 22 ± 14 nM^2%
- Interaction [2]: Moderate Synergy
- EC50 [3]: 0.496 ± 0.135 µM
- CC50 at 3 days [4]: > 22.2 µM
- Interaction [5]: Additive
- Synergy Volume [5]: 22 ± 12 nM^2
- Antagonism Volume (cytotoxicity) [6]: 0 ± 0 nM^2%
- Interaction (cytotoxicity) [6]: Additivity (Additivity: ≦25 and >−25 nM^2%)
- Synergy Volume (cytotoxicity) [6]: 17 ± 14 nM^2%

SMILES: CC1=CC[C@H](C(=O)N(c2cc(C#CC(C)(C)C)sc2C(=O)O)[C@H]2CC[C@](O)(CO[C@H]3CCOC3)CC2)CC1 [Compound 5, 5-(3,3-dimethylbut-1-yn-1-yl)-3-[(cis-4-hydroxy-4-{[(3S)-tetrahydrofuran-3-yloxy]methyl}cyclohexyl){[(1R)-4-methylcyclohex-3-en-1-yl]carbonyl}amino]thiophene-2-carboxylic acid]
- fold change in EC50 vs wild-type GT1b ([7]; mutant A156D): 0.8 fold
- fold change in EC50 vs wild-type GT1b ([7]; mutant A156G): 0.8 fold
- fold change in EC50 vs wild-type GT1b ([7]; mutant A156T): 0.7 fold
- fold change in EC50 vs wild-type GT1b ([7]; mutant A156V): 0.8 fold
- fold change in EC50 vs wild-type GT1b ([7]; mutant D168A): 0.9 fold
- fold change in EC50 vs wild-type GT1b ([7]; mutant D168E): 0.9 fold
- fold change in EC50 vs wild-type GT1b ([7]; mutant D168E + L31V + Y448H): 0.8 fold
- fold change in EC50 vs wild-type GT1b ([7]; mutant D168E + Y93H + Y448H): 0.5 fold
- fold change in EC50 vs wild-type GT1b ([7]; mutant D168E + Y448H): 0.4 fold
- fold change in EC50 vs wild-type GT1b ([7]; mutant D168G): 0.8 fold
- fold change in EC50 vs wild-type GT1b ([7]; mutant D168H): 1.0 fold
- fold change in EC50 vs wild-type GT1b ([7]; mutant D168H + C445F): 0.4 fold
- fold change in EC50 vs wild-type GT1b ([7]; mutant D168L + C445F): 0.2 fold
- fold change in EC50 vs wild-type GT1b ([7]; mutant D168N): 1.1 fold
- fold change in EC50 vs wild-type GT1b ([7]; mutant D168T): 1.0 fold
- fold change in EC50 vs wild-type GT1b ([7]; mutant D168V): 1.3 fold
- fold change in EC50 vs wild-type GT1b ([7]; mutant D168V + C445F): 0.3 fold
- fold change in EC50 vs wild-type GT1b ([7]; mutant D168V + L31V + Y448H): 0.6 fold
- fold change in EC50 vs wild-type GT1b ([7]; mutant D168V + Y93H + Y448H): 0.6 fold
- fold change in EC50 vs wild-type GT1b ([7]; mutant D168V + Y448H): 0.5 fold
- fold change in EC50 vs wild-type GT1b ([7]; mutant D168Y): 1.1 fold
- fold change in EC50 vs wild-type GT1b ([7]; mutant L31V + D168E): 1.3 fold
- fold change in EC50 vs wild-type GT1b ([7]; mutant L31V + D168V): 1.1 fold
- fold change in EC50 vs wild-type GT1b ([7]; mutant R155C): 0.6 fold
- fold change in EC50 vs wild-type GT1b ([7]; mutant R155G): 0.8 fold
- fold change in EC50 vs wild-type GT1b ([7]; mutant R155K): 1.2 fold
- fold change in EC50 vs wild-type GT1b ([7]; mutant R155L): 0.8 fold
- fold change in EC50 vs wild-type GT1b ([7]; mutant R155Q): 0.6 fold
- fold change in EC50 vs wild-type GT1b ([7]; mutant R155W): 0.5 fold
- fold change in EC50 vs wild-type GT1b ([7]; mutant Y93H + D168E): 1.0 fold
- fold change in EC50 vs wild-type GT1b ([7]; mutant Y93H + D168V): 0.5 fold
- fold change in EC50 vs wild-type GT1a ([8]; mutant A156T): 0.4 fold
- fold change in EC50 vs wild-type GT1a ([8]; mutant D168A): 1.1 fold
- fold change in EC50 vs wild-type GT1a ([8]; mutant D168E): 0.7 fold
- fold change in EC50 vs wild-type GT1a ([8]; mutant D168G): 1.0 fold
- fold change in EC50 vs wild-type GT1a ([8]; mutant D168H): 1.1 fold
- fold change in EC50 vs wild-type GT1a ([8]; mutant D168N): 1.3 fold
- fold change in EC50 vs wild-type GT1a ([8]; mutant D168V): 1.1 fold
- fold change in EC50 vs wild-type GT1a ([8]; mutant D168Y): 0.7 fold
- fold change in EC50 vs wild-type GT1a ([8]; mutant R155I): 0.7 fold
- fold change in EC50 vs wild-type GT1a ([8]; mutant R155K): 0.8 fold
- fold change in EC50 vs wild-type GT1a ([8]; mutant R155K + L31M): 0.4 fold
- fold change in EC50 vs wild-type GT1a ([8]; mutant R155K + L31M + Y448H): 0.3 fold
- fold change in EC50 vs wild-type GT1a ([8]; mutant R155K + M28T): 0.8 fold
- fold change in EC50 vs wild-type GT1a ([8]; mutant R155K + M28T + Y448H): 0.3 fold
- fold change in EC50 vs wild-type GT1a ([8]; mutant R155K + Q30H + Y448H): 0.5 fold
- fold change in EC50 vs wild-type GT1a ([8]; mutant R155K + Q30R): 1.5 fold
- fold change in EC50 vs wild-type GT1a ([8]; mutant R155K + Y93H): 0.6 fold
- fold change in EC50 vs wild-type GT1a ([8]; mutant R155K + Y488H (first line, r20)): 1.0 fold
- fold change in EC50 vs wild-type GT1a ([8]; mutant R155K + Y488H (second line, r26)): 0.6 fold
- fold change in EC50 vs wild-type GT1a ([8]; mutant R155M): 0.7 fold
- fold change in EC50 vs wild-type GT1a ([8]; mutant R155S): 0.5 fold
- fold change in EC50 vs wild-type GT1a ([8]; mutant R155T): 0.6 fold
- fold change in EC50 vs wild-type GT1a ([8]; mutant R155W): 1.0 fold
- fold change in EC50 vs wild-type GT1a ([8]; mutant R155k + Q30H): 0.6 fold
- Antagonism Volume [1]: −1 ± 3 nM^2%
- Synergy Volume [1]: 26 ± 28 nM^2%
- EC50 [3]: 0.015 ± 0.0024 µM
- CC50 at 3 days [4]: > 44.4 µM
- susceptibility of mutants [9]: susceptible
- Antagonism Volume (cytotoxicity) [6]: −10 ± 7 nM^2%
- Interaction (cytotoxicity) [6]: Additivity (Additivity: ≦25 and >−25 nM^2%)
- Synergy Volume (cytotoxicity) [6]: 15 ± 8 nM^2%
